Values quoted from earlier work in patent EP3888461A1, “NON-AQUEOUS DISPERSIONS COMPRISING INHIBITORS OF HYDROXYPHENYLPYRUVATE-DIOXYGENASE AND CITRIC ACID” (Bayer AG, priority 2020, dated 2021).

Conditions: commercially available brands of surfactants of structure (II)

| Substance | Log P |
| --- | --- |
| Polyoxyethylene (16) sorbitan monolaurate [Tween® 24] | 0.26 |
| Tween® 21 | 2.71 |
| Tween® 60 | 2.48 |

Continued, values first:

| Log P | Substance |
| --- | --- |
| -0.55 | Tween® 20 |
| 1.47 | Tween® 40 |
| 1.99 | Tween® 80 |
